Measurements as given in patent publication US8883782B2, “Spiro-tetracyclic ring compounds as beta-secretase modulators and methods of use” (Amgen Inc., priority 2010, dated 2014).
Like-named read-outs stand apart in the source and are kept apart here.

What was measured:
[1] = target: Beta Secretase enzyme (BACE) (Homo sapiens, UniProt P56817); assay: In vitro enzymatic BACE FRET (fluorescence resonance energy transfer) assay; type: biochemical; details: average IC50, enzyme assay; read-out: BACE 1 FRET assay
Beta Secretase enzyme (BACE), sequence (P56817 46-501, species assumed): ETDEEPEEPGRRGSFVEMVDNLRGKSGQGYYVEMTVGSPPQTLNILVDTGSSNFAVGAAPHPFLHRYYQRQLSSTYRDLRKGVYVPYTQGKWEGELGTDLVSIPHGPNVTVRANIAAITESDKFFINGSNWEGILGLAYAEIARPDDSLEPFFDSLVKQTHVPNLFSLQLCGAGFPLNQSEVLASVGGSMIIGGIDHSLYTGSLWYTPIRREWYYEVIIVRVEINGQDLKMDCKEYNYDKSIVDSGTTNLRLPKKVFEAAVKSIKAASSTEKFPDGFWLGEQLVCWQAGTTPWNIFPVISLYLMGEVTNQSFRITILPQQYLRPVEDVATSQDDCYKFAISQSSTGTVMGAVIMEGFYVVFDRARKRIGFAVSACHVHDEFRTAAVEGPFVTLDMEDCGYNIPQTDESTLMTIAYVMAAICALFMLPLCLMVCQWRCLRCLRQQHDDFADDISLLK
Summary of the method: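 Buffer 0.05 M acetate pH 4.2, 10% DMSO final, 100 uM genapol (sub-CMC); start with 50 nM FRET substrate; 1 h incubation; Tris stop; fluorescence read.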

[2] = test system: Abeta 40 in cerebrospinal fluid (CSF) and brain; assay: In vivo inhibition of beta-secretase (Abeta 40 reduction in CSF and brain); details: rat, after 4 hrs; for inhibition in vivo at 3 mg/kg: Abeta 40, 3 mpk; for inhibition in vivo at 10 mg/kg: Abeta 40, 10 mg/kg (10 mpk)
[3] = test system: Aβ40 in conditioned medium of cells stably expressing Amyloid Precursor Protein (APP); assay: In vitro BACE cell-based assay (Aβ40 in conditioned medium, sandwich ELISA); details: Homo sapiens, HEK293, average IC50; read-out: HEK cell assay
Summary of the method: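 The sandwich ELISA pairs pAb40 capture (3 h, 4 °C) with 6E10 detection (2 h, 4 °C) and a streptavidin-europium TRF read-out. Supernatants come from APP-expressing cells grown in 10% FBS DMEM.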

[4] = CSF, read-out: CSF A-beta reduction % at 3 mpk
[5] = brain, read-out: Brain A-beta reduction % at 3 mpk
[6] = CSF, read-out: CSF A-beta reduction % at 10 mg/kg
[7] = brain, read-out: Brain A-beta reduction % at 10 mg/kg

Row | Compound | IC50 [1] [nM] | CSF A-beta reduction % at 5 mpk ([2]; CSF, Abeta 40, 5 mpk) [% at 5 mpk] | Brain A-beta reduction % at 5 mpk ([2]; brain, Abeta 40, 5 mpk) [% at 5 mpk] | IC50 [3] [nM] | inhibition in vivo at 3 mg/kg [2, 4] [%] | inhibition in vivo at 3 mg/kg [2, 5] [%] | inhibition in vivo at 10 mg/kg [2, 6] [%] | inhibition in vivo at 10 mg/kg [2, 7] [%]
1 | NC1=N[C@@]2(CS1)c1cc(-c3cccnc3F)ccc1Oc1cnc(N3CCOCC3)cc12 [Example 999, (S)-7-(2-fluoropyridin-3-yl)-3-morpholino-5′H-spiro[chromeno[2,3-c]pyridine-5,4′-thiazol]-2′-amine] | 0.5 | 58 | 40 | 14 |  |  |  | 
2 | NC1=N[C@@]2(CS1)c1cc(-c3cccnc3F)ccc1Oc1c2cc(C2=CCOCC2)nc1F [Example 1001, (S)-3-(3,6-dihydro-2H-pyran-4-yl)-1-fluoro-7-(2-fluoropyridin-3-yl)-5′H-spiro[chromeno[2,3-c]pyridine-5,4′-thiazol]-2′-amine] | 0.3 |  |  | 4 | 73 | 62 |  | 
3 | NC1=N[C@@]2(CS1)c1cc(-c3cccnc3F)ccc1Oc1c2cc(C2CCOCC2)nc1F [Example 1029, (S)-1-fluoro-7-(2-fluoropyridin-3-yl)-3-(tetrahydro-2H-pyran-4-yl)-5′H-spiro[chromeno[2,3-c]pyridine-5,4′-thiazol]-2′-amine] | 0.4 |  |  | 7 |  |  | 83 | 73
4 | CC1(C)C=C(c2cc3c(c(F)n2)Oc2ccc(-c4cccnc4F)cc2[C@@]32CSC(N)=N2)CCO1 [Example 1033, (S)-3-(6,6-dimethyl-3,6-dihydro-2H-pyran-4-yl)-1-fluoro-7-(2-fluoropyridin-3-yl)-5′H-spiro[chromeno[2,3-c]pyridine-5,4′-thiazol]-2′-amine] | 108 |  |  | 563 | 60 | 52 |  | 
5 | Cc1cc(-c2cc3c(c(F)n2)Oc2ccc(-c4cccnc4F)cc2[C@@]32CSC(N)=N2)ccn1 [Example 1037, (S)-1-fluoro-7-(2-fluoropyridin-3-yl)-3-(2-methylpyridin-4-yl)-5′H-spiro[chromeno[2,3-c]pyridine-5,4′-thiazol]-2′-amine] | 2.1 |  |  | 49 |  |  | 67 | 58
6 | CC(C)(F)COc1cc(F)c2c(c1)[C@]1(CSC(N)=N1)c1cc(-c3cccnc3F)ccc1O2 [Example 1067, (S)-4′-fluoro-2′-(2-fluoro-2-methylpropoxy)-7′-(2-fluoropyridin-3-yl)-5H-spiro[thiazole-4,9′-xanthen]-2-amine] | 0.3 |  |  | 15 |  |  | 69 | 55
7 | NC1=N[C@@]2(CS1)c1cc(-c3cccnc3F)ccc1Oc1c(F)cc(N3CCC(F)(F)CC3)cc12 [Example 1076, (S)-2′-(4,4-difluoropiperidin-1-yl)-4′-fluoro-7′-(2-fluoropyridin-3-yl)-5H-spiro[thiazole-4,9′-xanthen]-2-amine] | 0.4 |  |  | 14 |  |  | 63 | 33
8 | NC1=N[C@@]2(CS1)c1cc(-c3cccnc3F)ccc1Oc1c(F)cc(N3CCC(F)(F)C3)cc12 [Example 1077, (S)-2′-(3,3-difluoropyrrolidin-1-yl)-4′-fluoro-7′-(2-fluoropyridin-3-yl)-5H-spiro[thiazole-4,9′-xanthen]-2-amine] | 0.3 |  |  | 9 |  |  | 69 | 53
9 | NC1=N[C@@]2(CS1)c1cc(-c3cccnc3F)ccc1Oc1c(F)cc(-c3ncccn3)cc12 [Example 1079, (S)-4′-fluoro-7′-(2-fluoropyridin-3-yl)-2′-(pyrimidin-2-yl)-5H-spiro[thiazole-4,9′-xanthen]-2-amine] | 0.4 |  |  | 12 |  |  | 67 | 54
10 | NC1=N[C@@]2(CS1)c1cc(-c3cccnc3F)ccc1Oc1c(F)cc(-c3cccnc3)cc12 [Example 1083, (S)-4′-fluoro-7′-(2-fluoropyridin-3-yl)-2′-(pyridin-3-yl)-5H-spiro[thiazole-4,9′-xanthen]-2-amine] | 1.2 |  |  | 18 |  |  | 66 | 53
11 | NC1=N[C@@]2(CS1)c1cc(-c3cccnc3F)ccc1Oc1c(F)cc(N3C[C@@H]4C[C@H]3CO4)cc12 [Example 1084, (S)-2′-((1S,4S)-2-oxa-5-azabicyclo[2.2.1]heptan-5-yl)-4′-fluoro-7′-(2-fluoropyridin-3-yl)-5H-spiro[thiazole-4,9′-xanthen]-2-amine] | 7.5 |  |  | 102 |  |  | 67 | 50
